One assay has as its system human PBMCs. As to the kind of experiment: CD3/CD28 stimulated IL-2 release NECA reversal assay in human PBMCs. It counts as cell-based. Conditions: PBMC, reversal of 1 uM NECA, 24 hours. The protocol: Blood is drawn from healthy volunteers using sodium citrate as the anticoagulant (0.3% final concentration). After centrifugation of the blood over Histopaque-1077, PBMCs are collected from the Histopaque/plasma interface and washed twice in PBS (300 g for 10 mins at room temp). Cells are plated at 50,000 cells/well in 150 μl RPMI/10% FCS in 96-well cell culture plates that have been precoated with 1 μg/ml CD3 antibody. 50 μl diluted compound mix is added to the cells, to obtain final concentrations of 1 μg/ml CD28 antibody, 1 uM NECA and 0.003-10 μM adenosine receptor antagonist. Assay plates are incubated for 24 hours at 37° C. in a humidified incubator. Culture supernatant is tested for IL-2 levels using the human IL-2 Tissue Culture Kit (Meso Scale Discovery).

Assay [1] has as its system immature monocyte-derived dendritic cells (MoDC). Nature of the assay: MoDC pCREB assay. Type of assay: cell-based. To be noted: Homo sapiens, Dendritic cell, CD209+/CD86-low cells, 1 μM NECA, 20 μM rolipram, largely specific to A2B. The protocol: Monocytes are isolated from human whole blood using CD14 microbeads (Miltenyi Biotec 130-050-201) and differentiated to immature monocyte-derived dendritic cells (MoDC) by culture for 5 days in Mo-DC Differentiation Medium (Miltenyi Biotec 130-094-812). MoDCs are seeded into fresh medium into U bottomed 96 well culture plates and pre-incubated at 37° C. with serial dilutions of A2A/B antagonists for 15 min. At the same time the cells are co-incubated with the phosphodiesterase inhibitor rolipram (final concentration of 20 μM) to amplify the subsequent pCREB response. Adenosine receptor agonist NECA is then added at 1 μM final concentration, leading to an increase in CREB phosphorylation. Following a 45 min incubation at 37° C., the cells are fixed, permeabilized and stained with directly conjugated fluorescent antibodies to phospho-CREB (Alexa Fluor 488), CD209 (PerCP-Cy5.5) and CD86 (APC). Samples are analysed by FACS to measure fluorescence in corresponding channels, and also forward and Side scatter. The population of CD209+/CD86-low cells corresponding to immature dendritic cells is gated for analysis of pCREB levels.
Approximately 5% of the analysed cells are positive for detection of pCREB in the absence of agonist stimulation, representing the background signalling of all pathways upstream of CREB. Following NECA stimulation this is increased to ˜80% pCREB+ve, and this increase is essentially fully reversible by A2B or dual A2A/B antagonists.
IC50 is represented as the point of inflection of a sigmoidal curve

For assay [2], the target named is human Adenosine A1 receptor (Homo sapiens (Human), UniProt P30542). As to the kind of experiment: Adenosine receptor TR-FRET binding assay (A1). Summed up: (§1)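 Compounds incubated 2 h at room temperature with membranes from CHO cells expressing terbium-labelled human receptors, competing with the fluorescent antagonist CA200645 (30 nM for A2b; 100 nM for A1, A2a and A3). Read by TR-FRET (665/620 nm); non-specific binding defined with 10 μM XAC. Ki derived from IC50 via Cheng-Prusoff.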
Sequence of human Adenosine A1 receptor (P30542 whole entry): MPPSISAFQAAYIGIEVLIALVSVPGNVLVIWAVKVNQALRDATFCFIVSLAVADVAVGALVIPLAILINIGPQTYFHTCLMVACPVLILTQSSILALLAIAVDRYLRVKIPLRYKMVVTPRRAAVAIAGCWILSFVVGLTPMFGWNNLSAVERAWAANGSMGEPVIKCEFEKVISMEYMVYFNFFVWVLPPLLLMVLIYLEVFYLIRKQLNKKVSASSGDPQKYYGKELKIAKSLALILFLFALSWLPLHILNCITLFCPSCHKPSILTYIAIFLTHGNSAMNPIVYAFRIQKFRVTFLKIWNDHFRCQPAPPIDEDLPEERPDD
A general note: In TR-FRET formats the signal depends on donor and acceptor labels being close together.

For assay [3], the target named is human Adenosine A2b receptor (Homo sapiens (Human), UniProt P29275). As to the kind of experiment: Adenosine receptor TR-FRET binding assay (A2b). To be noted: inhibition of binding of 30 nM CA200645; CHO cell membranes; Ki from IC50 by Cheng and Prusoff. The essentials:
as §1

Assay [4] has as its system CD8+ T cells in human whole blood. As to the kind of experiment: Measurement of pCREB in CD8+ T cells in human whole blood. It counts as cell-based. To be noted: T-cell, 3 μM NECA, rolipram, FACS. Here is the method: Heparinised human whole blood was pre-incubated at 37° C. with serial dilutions of A2a antagonists for 20 min. and the phosphodiesterase inhibitor rolipram to amplify the pCREB response. The adenosine receptor agonist NECA is then added at a final concentration of 3 μM and following a 60 min incubation the blood is fixed and red blood cells lysed. White blood cells are isolated, permeabilized and stained with directly conjugated fluorescent antibodies to phospho-CREB (Alexa Fluor 488) and CD8 (Alexa Fluor 647) and the level of phospho-CREB in CD8+ T cells is measured by FACS using a BD Accuri C6 Flow Cytometer.

Assay [5] has as its target human Adenosine A2a receptor (Homo sapiens (Human), UniProt P29274). As to the kind of experiment: Adenosine receptor TR-FRET binding assay (A2a). The essentials: as §1
Assay [6] addresses human Adenosine A3 receptor (Homo sapiens (Human), UniProt P0DMS8). Nature of the assay: Adenosine receptor TR-FRET binding assay (A3). Conditions: inhibition of binding of 100 nM CA200645; CHO cell membranes; Ki from IC50 by Cheng and Prusoff. Here is the method:
All FRET binding experiments were conducted at room temperature in white 384-well plates, in assay binding buffer containing 1× LabMed (Cisbio, France), 100 μg/mL saponin, 1% DMSO and 0.02% pluronic acid. Binding of the fluorescently labelled Adenosine receptor antagonist XAC (CA200645, FRET acceptor) to terbium-labelled A1, A2a, A2b and A3 adenosine receptors (FRET donors) was detected by time-resolved FRET due to the close proximity of the donor and acceptor in a binding event. To investigate the ability of unlabelled test compounds to bind to Adenosine A1, A2a, A2b and A3 receptors, dose response curves were constructed that determined the ability of a range of concentrations to inhibit the binding of 30 nM CA200645 to the A2b receptor and 100 nM CA200645 to the A1, A2a, and A3 receptor.
Serial dilution (1:3 dilutions) of test compounds in neat DMSO and transfer of a 400 nL sample of test compound into the assay plate was carried out using the Mosquito (TTP Labtech, UK). The compound samples were incubated for 2 hours at room temperature with a fixed concentration of CA200645 defined for each receptor (see above) and CHO cell membranes containing the human Adenosine A1 (0.5 μg/well), A2a (0.3 μg/well), A2b (1 μg/well) or A3 (1 μg/well) receptor in 40 μL of assay buffer. Total and non-specific binding of CA200645 was determined in the absence and presence of 10 μM XAC, respectively. Following 2 hours incubation, the level of CA200645 binding was detected on a Pherastar FSX (BMG Labtech, Germany) using standard TR-FRET settings. The terbium donor was excited with three laser flashes at a wavelength of 337 nm, and donor and acceptor emission was detected at 620 nm and 665 nm wavelengths, respectively. FRET ratios were obtained by multiplying the acceptor/donor ratio value by 10,000. Specific binding was determined by subtracting the non-specific binding FRET ratio from the total binding FRET ratio. Compound IC50 curves were analysed using GraphPad Prism 7.0 (GraphPad, USA) and Ki affinity values were determined from the obtained IC50 values using the method of Cheng and Prusoff.

The mark [7] stands for this setting: inhibition of binding of 100 nM CA200645, CHO cell membranes, Ki from IC50 by Cheng and Prusoff.

Read-outs that look alike come from different tables or passages of the source.

Sequence of human Adenosine A2b receptor (P29275 whole entry): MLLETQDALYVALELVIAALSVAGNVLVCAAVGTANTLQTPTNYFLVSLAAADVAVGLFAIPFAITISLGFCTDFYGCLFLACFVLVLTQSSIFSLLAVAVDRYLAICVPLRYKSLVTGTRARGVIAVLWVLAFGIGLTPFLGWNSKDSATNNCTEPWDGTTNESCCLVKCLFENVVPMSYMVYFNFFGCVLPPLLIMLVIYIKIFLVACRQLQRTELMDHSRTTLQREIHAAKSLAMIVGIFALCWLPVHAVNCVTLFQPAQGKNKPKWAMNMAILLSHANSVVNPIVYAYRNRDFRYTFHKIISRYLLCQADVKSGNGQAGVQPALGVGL
Sequence of human Adenosine A2a receptor (P29274 whole entry): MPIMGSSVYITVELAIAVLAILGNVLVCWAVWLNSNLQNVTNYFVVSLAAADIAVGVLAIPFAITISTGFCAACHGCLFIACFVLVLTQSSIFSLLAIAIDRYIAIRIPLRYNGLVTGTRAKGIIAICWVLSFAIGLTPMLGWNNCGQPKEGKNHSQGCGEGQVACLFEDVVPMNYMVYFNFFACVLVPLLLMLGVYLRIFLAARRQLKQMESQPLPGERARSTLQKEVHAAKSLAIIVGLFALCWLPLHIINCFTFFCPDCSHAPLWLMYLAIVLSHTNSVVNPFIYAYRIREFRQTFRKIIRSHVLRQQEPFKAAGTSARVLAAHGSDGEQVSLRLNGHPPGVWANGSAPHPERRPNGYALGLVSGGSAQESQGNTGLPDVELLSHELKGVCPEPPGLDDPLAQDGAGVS
Sequence of human Adenosine A3 receptor (P0DMS8 whole entry): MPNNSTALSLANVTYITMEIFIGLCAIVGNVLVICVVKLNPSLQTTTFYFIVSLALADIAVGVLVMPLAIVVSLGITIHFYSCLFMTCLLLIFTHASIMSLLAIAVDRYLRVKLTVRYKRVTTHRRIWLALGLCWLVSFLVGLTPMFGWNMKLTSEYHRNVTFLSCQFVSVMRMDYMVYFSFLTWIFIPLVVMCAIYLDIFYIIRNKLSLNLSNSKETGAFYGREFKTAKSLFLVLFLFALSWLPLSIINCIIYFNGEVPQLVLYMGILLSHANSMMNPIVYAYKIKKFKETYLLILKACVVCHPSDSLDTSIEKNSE

As usually defined, the IC50 is the concentration at which inhibition is half-maximal. For orientation: Ki means the dissociation constant of the complex between target and ligand, obtained from inhibition or displacement. As to `Cc1ncnc2ccc(-c3sc(NC(=O)N4CCC5(CC4)CNC(=O)C5)nc3-c3cccc(C#N)c3)cc12` [Example 7.17, N-[4-(3-Cyanophenyl)-5-(4-methylquinazolin-6-yl)thiazol-2-yl]-3-oxo-2,8-diazaspiro[4.5]decane-8-carboxamide], the IC50 was determined as 1.1 nM with human PBMCs, 2 nM in assay [1] and 4 nM in assay [4]. Moreover, the figures for the Ki in assay [2] (setting [7]), in assay [3] and in assay [5] (setting [7]) were 13 nM, 1.9 nM and 0.2 nM, respectively.

On to `Cc1ncnc2ccc(-c3sc(NC(=O)N4CCC(C)(C#N)CC4)nc3-c3cccc(C#N)c3)cc12` [Example 6, 4-Cyano-N-[4-(3-cyanophenyl)-5-(4-methylquinazolin-6-yl)thiazol-2-yl]-4-methyl-piperidine-1-carboxamide], for which the IC50 in the assay on human PBMCs worked out at 0.1 nM; in assay [1], 2 nM; in assay [4] it was 11 nM. Further, the results for the Ki in assay [2] (setting [7]), in assay [3] and in assay [5] (setting [7]) were 3 nM, 0.8 nM and 0.07 nM, respectively.

Turning to `Cc1ncnc2ccc(-c3sc(NC(=O)N4CC5(CNCCO5)C4)nc3-c3cccc(C#N)c3)cc12` [Example 4.1, N-[4-(3-Cyanophenyl)-5-(4-methylquinazolin-6-yl)thiazol-2-yl]-5-oxa-2,8-diazaspiro[3.5]nonane-2-carboxamide], the IC50 in the assay on human PBMCs is 1.8 nM; in assay [1] it was 2 nM; in assay [4], 8 nM. In addition, the values for the Ki in assay [2], in assay [3] and in assay [5] were 42 nM, 1.1 nM and 0.14 nM, respectively.

As to `Cc1ncnc2ccc(-c3sc(NC(=O)N4CCC(C)(C#N)C4)nc3-c3cccc(C#N)c3)cc12` (stereo not shown) [Example 7.25, 3-Cyano-N-[4-(3-cyanophenyl)-5-(4-methylquinazolin-6-yl)thiazol-2-yl]-3-methyl-pyrrolidine-1-carboxamide], the IC50 amounted to 0.3 nM with human PBMCs, 2 nM in assay [1] and 7 nM in assay [4]. Further, the Ki in assay [2] (setting [7]) turned out to be 3 nM; in assay [3], 1.1 nM; in assay [5] (setting [7]), 0.12 nM.

In the case of `Cc1ncnc2ccc(-c3sc(NC(=O)N4CCNCC4CC4CC4)nc3-c3cccc(C#N)c3)cc12` (stereo not shown) [Example 2.1, N-[4-(3-Cyanophenyl)-5-(4-methylquinazolin-6-yl)thiazol-2-yl]-2-(cyclopropylmethyl)piperazine-1-carboxamide], the IC50 in the assay on human PBMCs is 1.8 nM; in assay [1], 3 nM; in assay [4] it was 50 nM. Moreover, the Ki in assay [2] (setting [7]) was 12 nM; in assay [3] it was 2.5 nM; in assay [5] (setting [7]), 0.25 nM.

Take `N#Cc1cccc(-c2nc(NC(=O)N3CCOCC3)sc2-c2ccn3nccc3c2)c1` [Example 33, N-[4-(3-Cyanophenyl)-5-pyrazolo[1,5-a]pyridin-5-yl-thiazol-2-yl]morpholine-4-carboxamide]: the IC50 in the assay with human PBMCs was 6.4 nM; in assay [4] it was 219 nM. Further, the Ki is 0.2 nM in assay [2] (setting [7]), 0.5 nM in assay [3], 758 nM in assay [6] and 0.36 nM in assay [5] (setting [7]).

Take `Cc1ncnc2ccc(-c3sc(NC(=O)N4CCC5(CCC(=O)N5)CC4)nc3-c3cccc(C#N)c3)cc12` [Example 7.23, N-[4-(3-Cyanophenyl)-5-(4-methylquinazolin-6-yl)thiazol-2-yl]-2-oxo-1,8-diazaspiro[4.5]decane-8-carboxamide]: the IC50 in the assay on human PBMCs amounted to 0.8 nM; in assay [1], 3 nM; in assay [4], 30 nM. The Ki was 10 nM in assay [2] (setting [7]), 1.1 nM in assay [3] and 0.13 nM in assay [5] (setting [7]).

As to `Cc1ncnc2ccc(-c3sc(NC(=O)N4CCN(C5COC5)CC4)nc3-c3cccc(C#N)c3)cc12` [Example 7.28, N-[4-(3-Cyanophenyl)-5-(4-methylquinazolin-6-yl)thiazol-2-yl]-4-(oxetan-3-yl)piperazine-1-carboxamide], the IC50 in the assay with human PBMCs is 0.9 nM; in assay [1] it was 5 nM; in assay [4], 22 nM. Also, the Ki was 65 nM in assay [2] (setting [7]), 3.3 nM in assay [3] and 0.64 nM in assay [5] (setting [7]).

With `Cc1ncnc2ccc(-c3sc(NC(=O)N4CC[C@@H](C(C)(C)O)C4)nc3-c3cccc(C#N)c3)cc12` [Example 7, (3R)—N-[4-(3-Cyanophenyl)-5-(4-methylquinazolin-6-yl)thiazol-2-yl]-3-(1-hydroxy-1-methyl-ethyl)pyrrolidine-1-carboxamide], the figures for the IC50 (with human PBMCs; in assay [1]; in assay [4]) were 0.3 nM, 3 nM and 10 nM, respectively. The Ki in assay [3] is 1.4 nM; in assay [5] (setting [7]), 0.1 nM.

Consider `Cc1ncnc2ccc(-c3sc(NC(=O)N4CCC5(CC4)CN(C)C(=O)O5)nc3-c3cccc(C#N)c3)cc12` [Example 7.26, N-[4-(3-Cyanophenyl)-5-(4-methylquinazolin-6-yl)thiazol-2-yl]-3-methyl-2-oxo-1-oxa-3,8-diazaspiro[4.5]decane-8-carboxamide], for which the IC50 in the assay with human PBMCs was 0.5 nM; in assay [1] it was 2 nM; in assay [4] it was 15 nM. For the same molecule, the Ki was 19 nM in assay [2] (setting [7]), 1.8 nM in assay [3] and 0.13 nM in assay [5] (setting [7]).

Regarding `Cc1ncnc2ccc(-c3sc(NC(=O)N4CC[C@H](C(C)(C)O)C4)nc3-c3cccc(C#N)c3)cc12` [Example 5, (3S)—N-[4-(3-Cyanophenyl)-5-(4-methylquinazolin-6-yl)thiazol-2-yl]-3-(1-hydroxy-1-methyl-ethyl)pyrrolidine-1-carboxamide], the IC50 in the assay with human PBMCs is 0.4 nM; in assay [1], 3 nM; in assay [4], 15 nM. Also, the inhibition constant (Ki) in assay [3] is 1.7 nM; in assay [5] (setting [7]) it was 0.17 nM.

These data come from US20250243194A1, “ANTAGONIST OF ADENOSINE RECEPTORS” (AdoRx Therapeutics Limited, priority 2022, published 2025).
